Non-standard residues stand in square brackets, D forms with d. Nle = CCCC[C@H](N)C(=O)O
Tested on: MC4R as compared to the MC3R
Experiment: not given
Conditions: Nijenhuis et al. 2003; Sutton et al. 2008; cited from earlier work
For “Ac-Nle-Gly-Lys-D-NaI(2)-Arg-Trp-Gly-NH(2)”, the “selectivity for the MC4R as compared to the MC3R (MC4R/MC3R)” value is listed as 34 fold.
In the case of “Ac-Nle-Gly-Lys-D-Phe-Arg-Trp-Gly-NH(2) (Ac-[Nle]GK[dF]RWG-NH2; SMILES CCCC[C@H](NC(C)=O)C(=O)NCC(=O)N[C@@H](CCCCN)C(=O)N[C@H](Cc1ccccc1)C(=O)N[C@@H](CCCNC(=N)N)C(=O)N[C@@H](Cc1c[nH]c2ccccc12)C(=O)NCC(N)=O)”, the “selectivity for the MC4R as compared to the MC3R (MC4R/MC3R)” value is given as 90 fold.

Biological target: T1, wild-type human melanocortin 4 receptor (WT-hMC4R) (Homo sapiens, UniProt P32245)
T1 construct: expressed in transfected cells
T1 sequence (P32245 whole entry): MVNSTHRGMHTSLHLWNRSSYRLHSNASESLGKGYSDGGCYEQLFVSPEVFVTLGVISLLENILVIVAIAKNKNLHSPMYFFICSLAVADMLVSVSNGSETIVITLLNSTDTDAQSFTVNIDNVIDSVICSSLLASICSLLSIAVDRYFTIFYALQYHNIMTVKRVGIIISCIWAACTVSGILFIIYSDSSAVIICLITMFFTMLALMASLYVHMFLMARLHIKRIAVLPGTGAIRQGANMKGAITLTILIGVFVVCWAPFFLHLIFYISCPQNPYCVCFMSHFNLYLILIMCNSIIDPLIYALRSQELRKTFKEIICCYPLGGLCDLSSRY
Experiment: Cyclic AMP assay (HTRF), antagonist competition against NDP-α-MSH
Assay type: cell-based
Conditions: HEK293T cells stably expressing WT-hMC4R; inhibition of response to 4 nM NDP-α-MSH; cAMP
Procedure: The general procedures described above were used to prepare the examples described below. Reported HPLC retention time are for reverse-phase HPLC (Agilent, 1200 series) using the conditions reported above (See “General” section). Mass spectra were recorded on a 6210 G1969A LC/MSD TOF spectrometer from Agilent Technologies using the LC conditions reported above (See “General” section). IC50 values were obtained using the cAMP assay described below.
IC50 value is the half maximal concentration of the tested compound to inhibit half of the maximal response of the agonist NDP-α-MSH. It is a measurement of the antagonist compound potency.
Intracellular cyclic 3′-5′ adenosine monophosphate (cAMP) accumulation was measured using a competitive immunoassay based on HTRF (Homogeneous Time-Resolved Fluorescence) technology (cAMP dynamic-2, Cis-Bio).
HEK293T stable cell line expressing double-tagged WT-hMC4R construct were collected and washed in cAMP buffer (1×D-PBS pH 7.4, 0.1% glucose). 40,000 cells/well were then dispensed in 96-well plates in cAMP buffer [1×D-PBS, 1% BSA, 0.1% Glucose, 0.75 mM 3-isobutyl-1-methyl-xanthine (IBMX, Sigma)] and incubated either for antagonist competition assay: 1 hour at 37° C. with various concentrations of compound [0.01 nM-10 μM] followed by 30 min incubation at 37° C. with 4 nM of NDP-α-MSH (Sigma) or for agonist assay: 1 hour at 37° C. with various concentrations of compound [0.01 nM-10 μM]. 10,000 cells were transferred in 384-well plates, lysed and incubated with cAMP labeled with the dye d2 and anti-cAMP M-Antidody labeled with Cryptate following the manufacturer's protocol.
Reading of HTRF signal was performed on Artemis TR-FRET plate reader (Cosmo Bio).
All curve fitting was conducted using non-linear regression analyses from PRISM (version 4.0c, GraphPad Inc.) and the determination of Rmax and EC50 or IC50 parameters were obtained from sigmoidal dose-response phase (variable slope) equation.
A cDNA encoding a wild-type human MC4R with a 3 tandem copies of Hemaglutinine (HA) epitote sequence from UMR cDNA resource center was modified using known techniques in the art (e.g., PCR, cloning) to fused in frame at the C-terminal a venus-Yellow Fluorescent Protein (YFP) cDNA.
The resultant cDNA was then subcloned in eukaryotic expression vector, e.g. pcDNA 3.1(+) (Invitrogen).
The double tagged WT-hMC4R was transfected in HEK293T cells with lipofectamine (Invitrogen) following the manufacturer's instructions and permanently transfected clonal cell lines were selected by resistance to the neomycin analog G418.
HEK293T stable cell line expressing wild-type human melanocortin 4 receptor (WT-hMC4R) containing an N-terminal 3×HA epitope tag and an intracellular C-terminal venus-yellow fluorescent protein (v-YFP) were maintained at 37° C. in humidified air containing 5% CO2 in Dulbecoo's modified Eagle's medium (DMEM) supplemented with 10% fetal bovine serum (FBS), 100 U/ml penicillin/streptomycin (DMEM complete/10% FBS). Cells were generally at 70%-80% confluence on the day of assay.
Compound `CCCCN(CCCC)C(=O)c1ccc2nc(Nc3ccc(C(=O)N4CCOCC4)cc3)n(CCCN3CCCCC3)c2n1` [Cpd 59] has an IC50 of 0.1 to 1 µM.
With `CCCCN(CCCC)C(=O)c1cc2c(cn1)nc(-c1ccc(OC)cc1)n2CCCN1CCCCC1` [Cpd 60] the IC50 was 1 to 15 µM.
In the case of `CCCCN(CCCC)C(=O)c1ccc2nc(SCC)n(CCCN3CCCCC3)c2n1` [Cpd 61], the IC50 is reported as 1 to 15 µM.
Work on `CCCCN(CCCC)C(=O)c1ccc2nc(Oc3ccc(OC)cc3)n(CCCN3CCCCC3)c2n1` [Cpd 62] yielded an IC50 of 0.1 to 1 µM.
With `COc1ccc(-c2nc3cnc(C(=O)N(CCC(C)C)CCC(C)C)cc3n2CCCN2CCCCC2)cc1` [Cpd 63] the IC50 was 0.1 to 1 µM.
With `COc1ccc(Br)cc1-c1nc2cnc(C(=O)N(CCC(C)C)CCC(C)C)cc2n1CCCN1CCCCC1` [Cpd 64] the IC50 was 1 to 15 µM.
With `CC(C)CCN(CCC(C)C)C(=O)c1cc2c(cn1)nc(-c1cc3ccccc3s1)n2CCCN1CCCCC1` [Cpd 65] the IC50 was < 0.1 µM.
Work on `CCCCN(CCCC)C(=O)c1cc2c(cn1)nc(Oc1ccc(OC)cc1)n2CCCN1CCCCC1` [Cpd 66] yielded an IC50 of 0.1 to 1 µM.
`CCCCN(CCCC)C(=O)c1ccc2nc(Nc3ccc(C(=O)O)cc3)n(CCCN3CCCCC3)c2n1` [Cpd 67] gave an IC50 of 1 to 15 µM.
With `CC(=O)c1ccc(Nc2nc3ccc(C(=O)N(CCC(C)C)CCC(C)C)nc3n2CCCN2CCCCC2)cc1` [Cpd 68] the IC50 was < 0.1 µM.
In the case of `CC(C)CCN(CCC(C)C)C(=O)c1ccc2nc(Nc3ccc(C(C)O)cc3)n(CCCN3CCCCC3)c2n1` (stereo not drawn) [Cpd 69], the IC50 is reported as < 0.1 µM.
In the case of `CC(C)CCN(CCC(C)C)C(=O)c1ccc2nc(Nc3ccc(C(C)(C)O)cc3)n(CCCN3CCCCC3)c2n1` [Cpd 70], the IC50 is reported as < 0.1 µM.
With `COC(=O)c1ccc(Nc2nc3ccc(C(=O)N(CCC(C)C)CCC(C)C)nc3n2CCCN2CCCCC2)cc1` [Cpd 71] the IC50 was < 0.1 µM.
For `COc1ccc(-c2nc3ccc(C(=O)N(CCC(C)C)CCC(C)C)nc3n2CCCN2CCCCC2)cc1` [Cpd 72], the IC50 was 0.1 to 1 µM.
For `CC(C)CCN(CCC(C)C)C(=O)c1ccc2nc(-c3ccc4c(c3)OCO4)n(CCCN3CCCCC3)c2n1` [Cpd 73], the IC50 was 0.1 to 1 µM.
`COc1ccc(Nc2nc3ccc(C(=O)N(CCC(C)C)CCC(C)C)nc3n2CCCN2CCOCC2)cc1` [Cpd 74] showed an IC50 of 0.1 to 1 µM.
Compound `CC(C)CCN(CCC(C)C)C(=O)c1ccc2nc(Nc3cccnc3)n(CCCN3CCOCC3)c2n1` [Cpd 75] has an IC50 of 0.1 to 1 µM.
Compound `CC(C)CCN(CCC(C)C)C(=O)c1ccc2nc(NCc3ccc4c(c3)OCO4)n(CCCN3CCOCC3)c2n1` [Cpd 76] has an IC50 of 0.1 to 1 µM.
`COc1ccc(-c2nc3ccc(C(=O)N(CCC(C)C)CCC(C)C)nc3n2CCCN2CCOCC2)cc1` [Cpd 77] showed an IC50 of 1 to 15 µM.
For `CC(=O)N1CCC(c2nc3ccc(C(=O)N(CCC(C)C)CCC(C)C)nc3n2CCCN2CCOCC2)CC1` [Cpd 78], the IC50 was 1 to 15 µM.

Tested on: MC4R as compared to the MC5R
Experiment: not given
Conditions: Nijenhuis et al. Peptides 2003; cited from earlier work
In the case of “Ac-Nle-Gly-Lys-D-NaI(2)-Arg-Trp-Gly-NH(2)”, the “selectivity for the MC4R as compared to the MC5R (MC4R/MC5R)” value is given as 109 fold.
In the case of “Ac-Nle-Gly-Lys-D-Phe-Arg-Trp-Gly-NH(2) (Ac-[Nle]GK[dF]RWG-NH2; SMILES CCCC[C@H](NC(C)=O)C(=O)NCC(=O)N[C@@H](CCCCN)C(=O)N[C@H](Cc1ccccc1)C(=O)N[C@@H](CCCNC(=N)N)C(=O)N[C@@H](Cc1c[nH]c2ccccc12)C(=O)NCC(N)=O)”, the “selectivity for the MC4R as compared to the MC5R (MC4R/MC5R)” value is listed as 110 fold.
